{"source": "patent US20250027041A1", "about": "“COMPOSITION FOR INDUCING TRANSDIFFERENTIATION AND STEM CELLS TREATED THEREWITH” (YJ CERAPEUTICS INC., priority 2021, published 2025)", "key": {"CtBP2": {"biological_target": "T1, CtBP2 (Homo sapiens, UniProt P56545)", "T1 construct": "expressed in transfected cells; host or cells: human UCB-MSC, lysate", "test": "DARTS assay, CtBP2", "format": "binding", "procedure": "To identify proteins binding to compounds of the present invention, YJ101 (Chemical Formula 1), YJ102 (Chemical Formula 2), and YJ103 (Chemical Formula 3), in human umbilical cord blood-derived mesenchymal stem cells (UCB-MSCs), DART assay was performed. Specifically, UCB-MSCs (Kang Stem Cell, Passage #6) were dispensed into a 100 mm culture dish and incubated in a KSB-3 medium (Cat. K3901, Kang Stem Cell) containing 10% FBS (Cat. 16000044), and then collected and washed with PBS. Thereafter, the cells were added with an IP50 lysis buffer [50 mM Tris-HCl (pH 7.4), 150 mM NaCl, 2 mM MgCl2, and 0.1% NP40], sonicated, and centrifuged at 13,000×g for 10 minutes at 4° C. to obtain the supernatant. The supernatant was added with 1/10 volume of 10×TNC buffer [500 mM Tris-HCl (pH 8.0), 500 mM NaCl, and 100 mM CaCl2)], and protein concentration was measured using a Bradford method. Thereafter, 9 μl of a cell lysate and 1 μl of YJ101 (20 or M), YJ102 (20 or 30 μM), or YJ103 (20 or 40 μM) were mixed in a microcentrifuge tube and incubated at room temperature for 1 hour. A control group was treated with 1 μl of DMSO. After incubation, 1 μl (1 mg/ml) of Pronase (Cat. 10 165 921 001, Roche) diluted to 1 mg/ml using a 1×TNC buffer was added to the microcentrifuge tube and incubated at 37° C. for 15 minutes. After incubation, ⅕ volume of a 5×SDS-PAGE loading buffer was added, heated at 100° C. for 5 minutes, and then SDS-PAGE and Coomassie blue staining were performed. In addition, UCB-MSCs were dispensed at 4×10^5 cells/ml in a 60 mm culture dish, and after 24 hours, 4 μg of FLAG-CtBP1 or FLAG-CtBP2 DNA was transfected using 4 μl of jetPRIME. After 48 hours, the cells were collected, and proteins were extracted and quantified using the same method as above. DARTS assay was performed with the cell lysate of CtBP1 and Y102 labeled with FLAG, and Western blot assay was performed with a flag antibody (Cat. F3165, Sigma)."}, "[1]": {"system": "HES1, Sox2 and OCT4 gene promoters (CtBP1, CtBP1-LSD1 complex)", "test": "ChIP assay, target genes of CtBP1-YJ102", "format": "cell-based, human", "conditions": "YJ102, 2 days, UCB-MSC", "procedure": "To identify a target gene of CtBP1-YJ102 in human UCB-MSC, chromatin immunoprecipitation (ChIP) assay was performed. Specifically, 2×10^6 human UCB-MSCs were dispensed into a 100 mm culture dish, treated with 10 μl of YJ102 (30 mM) or DMSO (control) the next day, and incubated for 2 days. For cross-linking and DNA sharing, the cells were added with formaldehyde to be 1% to the culture dish in which UCB-MSCs were incubated and incubated at 37° C. for 10 minutes to be fixed. The culture medium was removed and washed twice with PBS containing a protease inhibitor to collect the cells. The cells were centrifuged at 3000 rpm at 4° C. for 5 minutes to remove the supernatant, and the cells were added with an SDS lysis buffer containing a protease inhibitor, incubated on ice for 10 minutes, and lysed by ultrasound. The cells were centrifuged at 13,000 rpm at 4° C. for 10 minutes, the supernatant was transferred to a new microcentrifuge tube, and added with 1/10 volume of ChIP Dilution Buffer. Thereafter, DNA was purified and subjected to agarose gel electrophoresis to confirm that the DNA was shared at 200 to 1000 bp. In addition, for chromatin immunoprecipitation, the Protein G agarose slurry was washed with PBS, blocked with 1 ml of 1% BSA, and then washed with PBS, added with a cell lysate lysed by ultrasound and primary antibodies included anti-CtBP1 antibody (Cat. 07-306, Millipore), anti-LSD1 antibody (Cat. A1156, Abclonal), and Normal rabbit IgG (Cat. 12-370, Merck Millipore) (control group) at 1 μg each, and then incubated using a rotator overnight at 4° C. The next day, the supernatant was removed by centrifugation, and DNA-antibody-agarose beads were washed once with Low Salt Immune Complex Wash Buffer; High Salt Immune Complex Wash Buffer; and LiCl Immune Complex Wash Buffer in sequence, and then washed twice with 1×TE. The DNA-antibody-agarose beads were added with 250 μl of elution buffer (1% SDS, 0.1M NaHCO3), incubated at room temperature for 15 minutes using a rotator, and centrifuged, and the supernatant was transferred to a new microcentrifuge tube. The elution process was repeated one more time and the eluate was mixed. The eluate was added with 20 μl of 5 M NaCl, heated at 65° C. for 4 hours, and then added with 10 μl of 0.5 M EDTA, 20 μl of 1 M Tris-HCl (pH 6.5), and 2 μl of proteinase K (10 mg/ml) and incubated at 45° C. for 1 hour. Phenol/chloroform extraction and ethanol precipitation were performed, the DNA pellet was resuspended in DW, and then real-time quantitative PCR was performed using primers shown in Table 2 below."}, "UCB-MSCs": {"system": "UCB-MSCs", "test": "Tuj1 immunochemical assay, direct conversion of UCB-MSCs into ciNSC5", "format": "cell-based, human", "conditions": "30 μM, 5 days", "procedure": "Immunochemical assay was performed to confirm whether UCB-MSCs were transdifferentiated into ciNSC5, Tuj1-positive neural progenitor cells, by the compounds of the present invention, YJ101, YJ102, and YJ103. Specifically, UCB-MSCs were dispensed at 2.1×10^4 cells/well in a 12-well plate containing an 18 mm cover glass (a DMSO control group was dispensed at 3.5×10^3 cells/well). […] The culture medium was removed, washed with PBS, and then fixed with 4% paraformaldehyde at room temperature for 10 minutes. After washed three times with PBS, the cells were permeabilized with PBS-T containing 0.5% Triton X-100 for 10 minutes, washed with PBS-T three times for 10 minutes each, and then blocked with a blocking solution (PBS-T containing 5% BSA and 5% goat serum) for 1 hour. Thereafter, the cells were treated with anti-Tuj1 antibody (Cat. 801201, BioLegend) diluted 1/5000 in a blocking solution and incubated at 4° C. overnight. The next day, the cells were washed 10 times for 10 minutes each with PBS-T, and then treated with anti-mouse IgG-FITC diluted 1/500 in a blocking solution, and incubated for 1 hour in dark conditions. Next, the cells were washed 10 times for 10 minutes each with PBS-T, mounted with a mounting solution containing DAPI, and then observed with a confocal microscope."}}}
{"smiles": "CCc1ccc(N(C(=O)COC)c2nc3cc(Cl)ccc3o2)cc1", "note": "[YJ102]", "values": [{"measurement": "overexpressed CtBP2 protection from degradation by pronase (DARTS)", "setting": "CtBP2; FLAG-CtBP2 transfected UCB-MSC lysate", "result": "protected"}, {"measurement": "CtBP2 protection from degradation by pronase (DARTS)", "setting": "CtBP2; endogenous CtBP2, UCB-MSC lysate", "result": "protected"}, {"measurement": "binding to CtBP2", "setting": "CtBP2; human UCB-MSC", "result": "bound to CtBP1 and CtBP2"}, {"measurement": "CtBP1-LSD1 complex binding to Sox2 gene promoter", "setting": "[1]", "result": "bound to a Sox2 gene promoter"}, {"measurement": "CtBP1 binding to HES1 gene promoter", "setting": "[1]", "result": "increased"}, {"measurement": "HES1 expression", "setting": "[1]", "result": "decrease HES1 expression"}, {"measurement": "OCT4 expression", "setting": "[1]", "result": "induce the expression of OCT4"}, {"measurement": "Sox2 expression", "setting": "[1]", "result": "increase Sox2 expression"}, {"measurement": "amount of CtBP1-LSD1 complex binding to OCT4 gene promoter", "setting": "[1]", "result": "increased"}, {"measurement": "direct conversion from UCB-MSCs to ciNSC5", "setting": "UCB-MSCs", "result": "induced direct conversion"}, {"measurement": "expression of Tuj1", "setting": "UCB-MSCs; UCB-MSC", "result": "increased"}]}
